# Earlier results in publication PMC4263960 (Pediatric blood & cancer, 2013).
# Like-named read-outs stand apart in the source and are kept apart here.
# Columns and labels:
# [1] = test system: neuroblastoma in children; conditions: 45 children with neuroblastoma; cited from earlier work
# [2] = test system: pediatric preclinical xenograft models; conditions: cited from earlier work
# Ewing sarcoma patients = conditions: cited from earlier work
# pediatric solid tumors = conditions: cited from earlier work
# [3] = test system: recurrent solid tumors in children; conditions: cited from earlier work
smiles,measurement,setting,value
COc1ccc(S(=O)(=O)Nc2cccnc2Nc2ccc(O)cc2)cc1 [ABT-751],objective responses,[1],absence of objective responses
same,preclinical models with regression,[2]; all models,4 of 25
same,preclinical models with regression,[2]; neuroblastoma models refractory to vincristine and paclitaxel,2 of 4
CC[C@]1(O)C[C@H]2CN(CCc3c([nH]c4ccccc34)[C@@](C(=O)OC)(c3cc4c(cc3OC)N(C=O)[C@H]3[C@@](O)(C(=O)OC)[C@H](OC(C)=O)[C@]5(CC)C=CCN6CC[C@]43[C@@H]65)C2)C1 [vincristine],patients with a partial response,Ewing sarcoma patients,one of seven
CCC1=C[C@@H]2CN(C1)Cc1c([nH]c3ccccc13)[C@@](C(=O)OC)(c1cc3c(cc1OC)N(C)[C@H]1[C@@](O)(C(=O)OC)[C@H](OC(C)=O)[C@]4(CC)C=CCN5CC[C@]31[C@@H]54)C2 [vinorelbine],patients with objective responses,pediatric solid tumors; Ewing sarcomas,one of seven
same,patients with objective responses,pediatric solid tumors; osteosarcomas,one of five
same,patients with objective responses,pediatric solid tumors; rhabdomyosarcoma,6 of 12
same,patients with objective responses,[3]; astrocytoma,1 of 4
same,patients with objective responses,[3]; eight children with neuroblastoma,no responses
same,patients with objective responses,[3]; medulloblastoma,1 of 2
same,patients with objective responses,[3]; nine patients with non-rhabdomyosarcoma soft tissue sarcoma,no responses
same,patients with objective responses,[3]; rhabdomyosarcoma,4 of 11
